Where two headings read alike, the source gives them in different places.
Experiments:
[1] = target: T1, HIV-1 viral protease (PR) (Human immunodeficiency virus type 1 group M subtype B, UniProt P04585); format: biochemical
Experimental: (§1) The antibody-functionalized electrode was interacted with varying concentrations of the Gag polyprotein generated in the translation mixture for 60 min. diluted to 1.0 mL in phosphate-buffered saline (PBS) solution, 0.1 M, pH 7.0, at room temperature. After attachment of the respective polyprotein to the sensing interface, the electrode was incubated in the solution of anti-MA or anti-CA (sources were 200-fold diluted) for 30 min at room temperature. After attachment to the respective antibody, the electrode was incubated either in a goat-anti-rabbit-HRP conjugate solution (2.5 μg·mL^−1), for the MA analysis, or in a goat-anti-mouse-HRP conjugate solution (2.5 μg·mL^−1) for the CA analysis, for 30 minutes at room temperature. 4-Chloro-1-naphthol (1) (FIG. 1D) was dissolved initially in ethanol and then the ethanolic stock solution was diluted with 0.1 M phosphate buffer, pH 7.0, to yield the developing solution that included 1×10^−3 M (1) and 2% (v/v) ethanol. The modified electrodes consisting of the HRP-tagged antibody-functionalized electrodes were incubated in the developing solution of (1) for a fixed and controlled time of 10 minutes at room temperature to stimulate the precipitation of (2) (FIG. 1D).
(§2) After incubation of the respective electrodes in the probe solution, the electrodes were rinsed with 0.1 M phosphate buffer, pH 7.0, and introduced into the electrochemical cell for their analyses by Faradaic impedance spectroscopy. It should be noted that after each step the electrode was rinsed thoroughly with buffer solution, pH 7.0, to eliminate any non-specific adsorbates on the electrode. In the microgravimetric quartz crystal microbalance measurements, the various modification and amplification steps, including the rinsing steps, were performed in the flow cell of the QCM apparatus.
(§3) All the RNA preparations were translated in vitro using the “Biotin in vitro translation kit” (Roche 1559951) in the absence or presence of Saquinavir (Ro 31-8959). Reactions were performed in 50 μL, according to the manufacturer's instructions, using DEPC-treated water. The PR inhibitor Saquinavir was dissolved in 1M NaCl in the DEPC-treated water, and was added to reaction mixtures before starting the synthesis.

viral PR = viral PR (Human immunodeficiency virus type 1 group M subtype B, UniProt P04585); format: biochemical; conditions: RNA of HIV-1 infected cultured cells, increased concentrations of saquinavir, FIG. 8
Experimental: as §1
All the RNA preparations were translated in vitro using the “Biotin in vitro translation kit” (Roche 1559951) in the absence or presence of Saquinavir (Ro 31-8959). […]

[2] = test system: viral PR from patients' plasma HIV RNA; assay: Four-path impedance analysis (FIG. 5) of RNA extracted from blood samples of AIDS patients treated with saquinavir; format: biochemical; conditions: for α = Ret^B(1)/Ret^A(1): CA units, anti-CA; for β = Ret^B(2)/Ret^A(2): MA units, anti-MA, β≈1.0 drug resistant, β<1 drug sensitive
Experimental: Plasma was obtained from consenting donors following removal of blood cells by centrifugation for 5 minutes at 3,000 rpm. The plasma was 3-fold diluted with PBS, and viral particles were peletted by centrifuging the volume for 45 minutes at 45,000 rpm in a Backman centrifuge (SW 50.1 rotor). The viral pellets were suspended in 1 mL TRIzol reagent (Gibco BRL) containing 5-10 μg of tRNA (Sigma) as carrier and RNA was extracted according to the manufacturer's instructions.
All the RNA preparations were translated in vitro using the “Biotin in vitro translation kit” (Roche 1559951) in the absence or presence of Saquinavir (Ro 31-8959). Reactions were performed in 50 μL, according to the manufacturer's instructions, using DEPC-treated water. The PR inhibitor Saquinavir was dissolved in 1M NaCl in the DEPC-treated water, and was added to reaction mixtures before starting the synthesis. The reaction mixtures were incubated for 90 min at 30° C. and the reactions were halted by placing in ice or storage at −75° C. until further use in the electrochemical measurements.
An extracted RNA specimen 100 is subdivided into two samples, A 102 and B 104. While sample A is subjected to in vitro translation in the presence of the PI, sample B is translated in the absence of the PI. Each of the translation mixtures is then further divided into two equal sub-samples, sample A into sub-samples A(1) 106 and A(2) 108, and sample B into sub-samples B(1) 110 and B(2) 112. The sub-samples A(1) and B(1) are subjected to the analysis of the total CA units using anti-CA, according to FIG. 1B, route (ii). The sub-samples A(2) and B(2) utilize the anti-MA antibody to assess content of polyprotein in the respective samples, according to FIG. 1A and FIG. 1B, route (i). Note that the ratio of the interfacial electron transfer resistances generated upon the precipitation of the precipitate (20) in sub-samples A(2) and B(2) reflect the content of polyprotein generated under PR inhibition vs. the unprocessed (=unhydrolyzed) polyprotein in the system.
The ratio of electron transfer resistances of paths A(1) and B(1) should be independent of the PI, and its value should be ≈1. This ratio provides an internal standard for the effectiveness of translations in the entire set of experiments. Thus, the four-path analysis scheme of the mRNA translation processes eliminates the background signal of unprocessed polyproteins in the absence of the inhibitor. The assay also abrogates the difference in the affinities of anti-CA and anti-MA to the respective antigens. Since the original sample is subdivided into equivalent sub-samples prior to translations, the problem of different RNA contents in analysis paths is cancelled out.
The analysis scheme outlined in FIG. 5 was applied to detect drug resistance in AIDS patients, treated with saquinavir. In this process, we expect that the analysis of the CA-units by the anti-CA antibodies will lead to an electron transfer resistance ratio of paths A(1) 106 and B(1) 110 in FIG. 5, that corresponds to α=Ret^B(1)/Ret^A(1)≈1.0 whereas the ratio of electron transfer resistance analyzing the MA-units with the anti-MA antibody of paths B(2) 112 and A(2) 108 in FIG. 5 should reveal the value β=Ret^B(2)/Ret^A(2)≈1.0 for drug resistant patients, and β<1 for drug sensitive patients.

G48V mutated PR = target: T2, G48V mutated PR (Human immunodeficiency virus type 1 group M subtype B, UniProt P12497, G536V); assay: Four-path impedance analysis (FIG. 5) of proteins translated from RNA of the HIV-1 G48V mutant; format: biochemical, HIV-1 (NL4-3)
T2 construct: a virus encoded protease (PR) which is one of the individual proteins making up the uncleaved polyprotein; made in house; host or cells: cell-free in vitro translation (Biotin in vitro translation kit, Roche 1559951) of RNA from the media of cultured cells infected with HIV-1 G48V
Experimental: (§4) A conventional three electrode cell, consisting of the modified Au electrode, a glassy carbon auxiliary electrode isolated by a glass frit, and a saturated calomel electrode (SCE) connected to the working volume with a Luggin capillary, was used for the electrochemical measurements. The cell was positioned in a grounded Faradaic cage. Impedance measurements were performed using an electrochemical impedance analyzer (EG&G, model 1025) and potentiostat (EG&G, model 283) connected to a computer (EG&G Software Power Suite 1.03 and 270 for impedance measurements). All electrochemical measurements were performed in 0.1 M phosphate buffer, pH 7.0, as a background electrolyte solution. Faradaic impedance measurements were performed in the presence of 10 mM K3[Fe(CN)6]/K4Fe(CN)6] (1:1) mixture, as a redox probe. Impedance measurements were performed at a bias potential of 0.17 V versus SCE using alternating voltage, 10 mV, in the frequency range of 100 mHz to 10 kHz. The impedance spectra were plotted in the form of complex plane diagrams (Nyquist plots).
as §1, with “The modified electrodes consisting of the HRP-tagged antibody-functionalized electrodes were incubated in the developing solution of (1) for a fixed and controlled time of 10 minutes at room temperature to stimulate the precipitation of (2) (FIG. 1D).” left out

[3] = target: protease encoded by the wild-type viral RNA (HIV-1 PR) (Human immunodeficiency virus type 1 group M subtype B, UniProt P04585); format: biochemical
Experimental: as §4
The antibody-functionalized electrode was interacted with varying concentrations of the Gag polyprotein generated in the translation mixture for 60 min. diluted to 1.0 mL in phosphate-buffered saline (PBS) solution, 0.1 M, pH 7.0, at room temperature. […]

[4] = target: T1, HIV-1 viral protease (PR); format: biochemical; conditions: for interfacial electron transfer resistance Ret after biocatalyzed precipitation of (20) (curve f): translation in the presence of saquinavir 1×10^−4 M, 10 min precipitation, non-inhibited mixture 2500 Ω
Experimental: as §4
The electrodes were rinsed with water, dried, and soaked in a 10 mM solution of the DSP-active ester in DMSO for 30 min at room temperature. The functionalized electrodes were rinsed with DMSO and water and incubated in a 100 μg·m]L^−1 solution of protein G, for 90 min in a phosphate buffer saline solution, pH=7.4, at room temperature, to couple covalently protein G lysine residues to the functionalized electrodes. The protein G-functionalized electrodes were then allowed to interact with the Fc fragment of the anti-CA-antibody, 1 μg·mL^−1, 30 min at room temperature, to yield the sensing interfaces.
as §1, §2, §3

AIDS patients = conditions: cited from earlier work
[5] = translation of bacterial RNA in the presence of saquinavir 1×10^−4 M

## CC(C)(C)NC(=O)[C@@H]1C[C@@H]2CCCC[C@@H]2CN1C[C@@H](O)[C@H](Cc1ccccc1)NC(=O)[C@H](CC(N)=O)NC(=O)c1ccc2ccccc2n1 [saquinavir]
[1]
  Anti-MA Δf: −80 Hz
  Anti-anti MA/HRP Δf: −140 Hz
  Precipitation of (2) Δf: −100 Hz
  frequency change upon treatment of the surface with the translated proteins: −50 Hz
Viral PR
  interfacial electron transfer resistance as the concentration of the inhibitor increases: enhanced
[2]; Patient # 1
  α = Ret^B(1)/Ret^A(1): 1.17 ± 0.03
  β = Ret^B(2)/Ret^A(2): 0.87 ± 0.04
[2]; Patient # 2
  α = Ret^B(1)/Ret^A(1): 1.07 ± 0.03
  β = Ret^B(2)/Ret^A(2): 1.1 ± 0.04
[2]; Patient # 3
  α = Ret^B(1)/Ret^A(1): 1.04 ± 0.03
  β = Ret^B(2)/Ret^A(2): 0.75 ± 0.04
[2]; Patient # 4
  α = Ret^B(1)/Ret^A(1): 1.10 ± 0.03
  β = Ret^B(2)/Ret^A(2): 0.79 ± 0.04
[2]; Patient # 5
  α = Ret^B(1)/Ret^A(1): 1.0 ± 0.03
  β = Ret^B(2)/Ret^A(2): 1.07 ± 0.04
G48V mutated PR
  effect of the inhibitor on the protease activity: no effect of the inhibitor is observed
G48V mutated PR; identical to path B(2) without inhibitor
  interfacial resistance Ret, path A(2) with the inhibitor (curve d): ≈ 11 kΩ
G48V mutated PR; without vs with inhibitor
  ratio Ret^B(2)/Ret^A(2): 1
[3]
  ratio Ret^B(2)/Ret^A(2): 0.43
[3]; wild type virus, saquinavir 1×10^−4 M, non-inhibited path B(2) Ret=6
  electron transfer resistance Ret, path A(2), anti-MA analysis (curve d): 14 kω
[4]; identical quantities of mRNA, absence vs presence of Saquinavir
  ΔRet upon precipitation, non-inhibited mixture lower than inhibited translation mixture: 4 fold
[4]; inhibited translation mixture, non-inhibited mixture ΔRet=500 Ω
  increase in interfacial electron transfer resistance ΔRet upon the precipitation of (20): ≈ 2000 Ω
[4]
  interfacial electron transfer resistance Ret after biocatalyzed precipitation of (20) (curve f): 5000 Ω
[4]; listed as Saquinavir
  interfacial electron transfer resistance Ret after biocatalyzed precipitation of (20) (curve f): ca. 5100 Ω
[4]; [5]
  electron transfer resistance Ret after addition of anti-anti-MA-HRP conjugate (curve e): 3000 Ω
  interfacial electron-transfer resistance Ret after association of anti-MA-Ab (curve d): 2800 Ω
  interfacial electron-transfer resistance after binding of the Gag polyprotein to anti-CA-Ab (curve c): 2100 Ω
AIDS patients; all other patients (#1, #3, #4), subjective statements of the physicians
  clinical condition under treatment: balanced conditions
AIDS patients; patients #2 and #5, subjective statements of the physicians
  clinical response to treatment: did not react to the treatment

Source: patent US20040142405A1, “Method of detecting drug resistance” (priority 2003, published 2004)
